Assay type in all cases: in vivo, human
The test system of experiment [1] is patients with long-standing RA. Put plainly: Study I open-label extension: HAQ. The note with it: 5 years. On the procedure:
(§1) Demographic data, age, gender, disease duration, rheumatoid factor and changes in TJC, SJC, CRP, DAS28, HAQ and ACR responses were analysed. Baseline demographics and disease characteristics as well as efficacy measures at last visit (ACR 20/50/70, DAS28, HAQ) were compared between the groups. All patients, including those who discontinued from the trial, were evaluated
(§2) Patients were eligible to enroll in Study I if they met ACR criteria for diagnosis of RA. […] Efficacy outcomes were assessed at pre-specified intervals as observed data. Treatment time was calculated beginning with the first subcutaneous injection of adalimumab at any dose, excluding time on placebo. Improvements in signs and symptoms of RA were evaluated for ACR20, ACR50, and ACR70 criteria, 28-joint count Disease Activity Score (DAS28) using the CRP-based formula, and Health Assessment Questionnaire (HAQ). Patients with changes in dosage of MTX or corticosteroids were evaluated for at least 6 months; these patients were eligible for the extension study for at least 6 months and were eligible for discretionary dose tapering. Patients were monitored for adverse events (AEs) during the entire length of the study, from signed informed consent through last visit.

For experiment [2], the system named is patients with long-standing RA who had inadequate responses to MTX. Put plainly: Study 1: tender and swollen joint counts. On the procedure:
Two readers assessed X-rays performed at baseline (start of RCT), 1 year (end of RCT), and 3 years (post 2 years OLE). Changes from baseline in Total Sharp Score (TSS), Joint Erosions (JE), and Joint Space Narrowing (JSN) were calculated. ACR 20, 50, and 70 response rates, as well as TJC and SJC, were also measured.

In experiment [3] the test system is patients with long-standing RA. Put plainly: Study 4 (open-label extension, adalimumab 40 mg eow + MTX): ACR response and Major Clinical Response. The protocol: The following study was performed to evaluate sustained remission in patients with RA treated with adalimumab and mtx. The study was an open-label extension study, where the last visit of the preceding study was used as the screening visit for Study 4. The study design for Study 4 is described in FIG. 12. The percentage of patients remaining on treatment over time from the first dose of adalimumab remained relatively constant. 846 patients enrolled over time.
ACR response rates and Major Clinical Response (MCR) remained constant through the fourth year of adalimumab treatment. Major Clinical Response (MCR) was defined as patients maintaining an ACR70 response for at least 6 continuous months over a 2-year period. […] At the end of the 4 year time period, 79% of patients had maintained an ACR20, 61% maintained an ACR50 response, and 38% maintained an ACR 70 response.
After these trials, patients were eligible to enroll in two separate OLE studies: Study 4 and Study 5. Patients were evaluated for efficacy and safety every 3 months.
Efficacy outcomes were evaluated as observed data: DAS28; ACR 20/50/70; Tender Joint Count (TJC); Swollen Joint Count (SJC); and HAQ Disability Index. Baseline demographics and disease characteristics were similar in both Study 4 and Study 5 consistent with moderate to severe RA, as shown below in Table 64: […]

In experiment [4] the test system is patients with long-standing RA. Put plainly: Study I open-label extension: DAS28 and clinical remission. The note with it: for patients in clinical remission (DAS28<2.6) / mean change from baseline in DAS28: last visit. The protocol:
217 patients who completed the blinded period and participated in the extension trial for a minimum of 6 months were allowed to adjust MTX and/or corticosteroid dosages at the discretion of the principal investigators. Dose tapering was conducted according to standard medical practice with respect to controlling disease activity
as §1, §2

For “adalimumab: human anti-TNF mAb (HUMIRA, Abbott Laboratories), described in U.S. Pat. No. 6,090,382 as D2E7”, the “patients with no physical limitations (HAQ=0)” value in experiment [1] is listed as 28%. Further, the “TJC or SJC” value in experiment [2] (36 months) was 5-7. Also, the “patients with 0 swollen joints” value in experiment [2] (last visit) was 22%. Moreover, in experiment [2] (last visit), the “patients with 0 tender joints” value was determined as 21%. In experiment [3] (end of 4 years), the “patients maintaining ACR20” value is recorded as 79%. In addition, the “patients maintaining ACR50” value in experiment [3] (end of 4 years) came out at 61%. For the same substance, the “patients maintaining ACR70” value in experiment [3] (end of 4 years) turned out to be 38%. Besides, the “patients achieving Major Clinical Response (ACR70 ≧6 continuous months)” value in experiment [3] (patients with at least 3 years of exposure) came out at 31%. Also, in experiment [4] (5 years), the “patients with DAS28<2.6” value was found to be 52%. Moreover, the “patients in clinical remission (DAS28<2.6)” value in experiment [4] (mtx and steroid decrease) worked out at 24%; in experiment [4] (mtx decrease) it was 7.2%; in experiment [4] (mtx increase) it was 6.7%; in experiment [4] (mtx no change), 15.5%; in experiment [4] (steroid decrease), 21.6%; in experiment [4] (steroid no change), 17.2%. In addition, the “mean change from baseline in DAS28” value is recorded as −2.7 in experiment [4] (mtx decrease); −1.7 in experiment [4] (mtx increase); −2.5 in experiment [4] (mtx no change); −3.0 in experiment [4] (mtx+steroid decrease); −2.9 in experiment [4] (steroid decrease); −2.5 in experiment [4] (steroid no change).

Source of the values: patent US20120171123A1, “USES AND COMPOSITIONS FOR TREATMENT OF RHEUMATOID ARTHRITIS” (priority 2006, published 2012).
